The values that follow are results of earlier work, collected in patent publication US12276869B1, “WS12-releasing contact lens” (CooperVision International Limited, priority 2022, dated 2025).

For this series the following is noted: incorporated into silicone hydrogel contact lenses.

Turning to `COc1ccc(NC(=O)C2CC(C)CCC2C(C)C)cc1` (stereo not shown) [WS12, N-(4-Methoxyphenyl)-5-methyl-2-(1-methylethyl)cyclohexanecarboxamide], the “stability to autoclave sterilization in silicone hydrogel contact lenses” value is recorded as “withstand autoclave sterilization without degradation or leaching into the packaging solution”.
